{"source": "PubChem BioAssay (NCI)", "assay_in_all_cases": "NCI tumour cell line growth inhibition, 48 h", "key": {"SF-295 CNS": {"test_system": "SF-295 CNS"}, "SK-MEL-5 melanoma": {"test_system": "SK-MEL-5 melanoma"}, "BT-549 breast": {"test_system": "BT-549 breast"}, "SK-MEL-2 melanoma": {"test_system": "SK-MEL-2 melanoma"}, "SW-620 colon": {"test_system": "SW-620 colon"}, "SF-268 CNS": {"test_system": "SF-268 CNS"}, "MDA-MB-435": {"test_system": "MDA-MB-435"}, "A549 NSCLC": {"test_system": "A549 NSCLC"}, "OVCAR-3 ovarian": {"test_system": "OVCAR-3 ovarian"}, "786-0 renal": {"test_system": "786-0 renal"}, "COLO 205 colon": {"test_system": "COLO 205 colon"}, "SR leukemia": {"test_system": "SR leukemia"}, "HT29 colon": {"test_system": "HT29 colon"}, "SF-539 CNS": {"test_system": "SF-539 CNS"}, "OVCAR-5 ovarian": {"test_system": "OVCAR-5 ovarian"}, "MDA-N": {"test_system": "MDA-N"}, "PC-3 prostate": {"test_system": "PC-3 prostate"}, "P388 leukemia": {"test_system": "P388 leukemia"}, "NCI-H522 lung": {"test_system": "NCI-H522 lung"}, "HS 578T breast": {"test_system": "HS 578T breast"}, "XF 498 CNS": {"test_system": "XF 498 CNS"}, "MOLT-4 leukemia": {"test_system": "MOLT-4 leukemia"}, "T-47D breast": {"test_system": "T-47D breast"}, "SK-MEL-28 melanoma": {"test_system": "SK-MEL-28 melanoma"}, "SNB-75 CNS": {"test_system": "SNB-75 CNS"}, "HCC-2998 colon": {"test_system": "HCC-2998 colon"}, "LOX IMVI melanoma": {"test_system": "LOX IMVI melanoma"}, "DLD-1 colon": {"test_system": "DLD-1 colon"}, "ACHN renal": {"test_system": "ACHN renal"}, "DMS 273 small cell lung": {"test_system": "DMS 273 small cell lung"}, "UACC-257 melanoma": {"test_system": "UACC-257 melanoma"}, "MALME-3M melanoma": {"test_system": "MALME-3M melanoma"}, "EKVX NSCLC": {"test_system": "EKVX NSCLC"}, "HOP-62 NSCLC": {"test_system": "HOP-62 NSCLC"}, "HL-60(TB) leukemia": {"test_system": "HL-60(TB) leukemia"}, "MCF7 breast": {"test_system": "MCF7 breast"}, "OVCAR-4 ovarian": {"test_system": "OVCAR-4 ovarian"}, "MDA-MB-231 breast": {"test_system": "MDA-MB-231 breast"}, "U251 CNS": {"test_system": "U251 CNS"}, "NCI-H226 lung": {"test_system": "NCI-H226 lung"}, "CCRF-CEM leukemia": {"test_system": "CCRF-CEM leukemia"}, "SN12C renal": {"test_system": "SN12C renal"}, "SN12K1 renal": {"test_system": "SN12K1 renal"}, "UO-31 renal": {"test_system": "UO-31 renal"}, "RXF 393 renal": {"test_system": "RXF 393 renal"}, "KM12 colon": {"test_system": "KM12 colon"}, "SK-OV-3 ovarian": {"test_system": "SK-OV-3 ovarian"}, "A498 renal": {"test_system": "A498 renal"}, "P388/ADR leukemia": {"test_system": "P388/ADR leukemia"}, "HOP-18 NSCLC": {"test_system": "HOP-18 NSCLC"}, "KM20L2 colon": {"test_system": "KM20L2 colon"}, "HOP-92 NSCLC": {"test_system": "HOP-92 NSCLC"}, "DMS 114 small cell lung": {"test_system": "DMS 114 small cell lung"}, "SNB-19 CNS": {"test_system": "SNB-19 CNS"}, "NCI/ADR-RES ovarian": {"test_system": "NCI/ADR-RES ovarian"}, "HCT-116 colon": {"test_system": "HCT-116 colon"}, "M14 melanoma": {"test_system": "M14 melanoma"}, "RPMI-8226 leukemia": {"test_system": "RPMI-8226 leukemia"}, "HCT-15 colon": {"test_system": "HCT-15 colon"}, "OVCAR-8 ovarian": {"test_system": "OVCAR-8 ovarian"}, "M19-MEL melanoma": {"test_system": "M19-MEL melanoma"}, "IGROV1 ovarian": {"test_system": "IGROV1 ovarian"}, "SNB-78 CNS": {"test_system": "SNB-78 CNS"}, "NCI-H23 lung": {"test_system": "NCI-H23 lung"}, "K-562 leukemia": {"test_system": "K-562 leukemia"}, "CAKI-1 renal": {"test_system": "CAKI-1 renal"}, "LXFL 529 NSCLC": {"test_system": "LXFL 529 NSCLC"}, "TK-10 renal": {"test_system": "TK-10 renal"}, "NCI-H460 lung": {"test_system": "NCI-H460 lung"}, "UACC-62 melanoma": {"test_system": "UACC-62 melanoma"}, "DU-145 prostate": {"test_system": "DU-145 prostate"}}, "note": "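All cell lines were grown in 96-well plates and treated with compound for 48 hours. TGI: total growth inhibition.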"}
{"compound": "CS(=O)c1cc(=O)c2ccccc2s1", "note": "(stereo unspecified)", "values": [{"measurement": "TGI", "setting": "SF-295 CNS", "result": 32.6, "unit": "µM"}, {"measurement": "TGI", "setting": "SK-MEL-5 melanoma", "result": 22.4, "unit": "µM"}, {"measurement": "TGI", "setting": "BT-549 breast", "result": 27.6, "unit": "µM"}, {"measurement": "TGI", "setting": "SK-MEL-2 melanoma", "result": 24.7, "unit": "µM"}, {"measurement": "TGI", "setting": "SW-620 colon", "result": 4.2, "unit": "µM"}, {"measurement": "TGI", "setting": "SF-268 CNS", "result": 24.5, "unit": "µM"}, {"measurement": "TGI", "setting": "MDA-MB-435", "result": 19, "unit": "µM"}, {"measurement": "TGI", "setting": "A549 NSCLC", "result": 38.3, "unit": "µM"}, {"measurement": "TGI", "setting": "OVCAR-3 ovarian", "result": 4.47, "unit": "µM"}, {"measurement": "TGI", "setting": "786-0 renal", "result": 7.41, "unit": "µM"}, {"measurement": "TGI", "setting": "COLO 205 colon", "result": 4.65, "unit": "µM"}, {"measurement": "TGI", "setting": "SR leukemia", "result": 4.67, "unit": "µM"}, {"measurement": "TGI", "setting": "HT29 colon", "result": 12.9, "unit": "µM"}, {"measurement": "TGI", "setting": "SF-539 CNS", "result": 18.4, "unit": "µM"}, {"measurement": "TGI", "setting": "OVCAR-5 ovarian", "result": 18.2, "unit": "µM"}, {"measurement": "TGI", "setting": "MDA-N", "result": 7.13, "unit": "µM"}, {"measurement": "TGI", "setting": "PC-3 prostate", "result": 28.9, "unit": "µM"}, {"measurement": "TGI", "setting": "P388 leukemia", "result": 6.79, "unit": "µM"}, {"measurement": "TGI", "setting": "NCI-H522 lung", "result": 3.07, "unit": "µM"}, {"measurement": "TGI", "setting": "HS 578T breast", "result": 62.7, "unit": "µM"}, {"measurement": "TGI", "setting": "XF 498 CNS", "result": 7.57, "unit": "µM"}, {"measurement": "TGI", "setting": "MOLT-4 leukemia", "result": 6.36, "unit": "µM"}, {"measurement": "TGI", "setting": "T-47D breast", "result": 6.52, "unit": "µM"}, {"measurement": "TGI", "setting": "SK-MEL-28 melanoma", "result": 8.97, "unit": "µM"}, {"measurement": "TGI", "setting": "SNB-75 CNS", "result": 24.4, "unit": "µM"}, {"measurement": "TGI", "setting": "HCC-2998 colon", "result": 16.6, "unit": "µM"}, {"measurement": "TGI", "setting": "LOX IMVI melanoma", "result": 9.02, "unit": "µM"}, {"measurement": "TGI", "setting": "DLD-1 colon", "result": 5.6, "unit": "µM"}, {"measurement": "TGI", "setting": "ACHN renal", "result": 3.66, "unit": "µM"}, {"measurement": "TGI", "setting": "DMS 273 small cell lung", "result": 19.5, "unit": "µM"}, {"measurement": "TGI", "setting": "UACC-257 melanoma", "result": 7.26, "unit": "µM"}, {"measurement": "TGI", "setting": "MALME-3M melanoma", "result": 4.53, "unit": "µM"}, {"measurement": "TGI", "setting": "EKVX NSCLC", "result": 20.5, "unit": "µM"}, {"measurement": "TGI", "setting": "HOP-62 NSCLC", "result": 44.2, "unit": "µM"}, {"measurement": "TGI", "setting": "HL-60(TB) leukemia", "result": 4.63, "unit": "µM"}, {"measurement": "TGI", "setting": "MCF7 breast", "result": 14.4, "unit": "µM"}, {"measurement": "TGI", "setting": "OVCAR-4 ovarian", "result": 5.95, "unit": "µM"}, {"measurement": "TGI", "setting": "MDA-MB-231 breast", "result": 32.8, "unit": "µM"}, {"measurement": "TGI", "setting": "U251 CNS", "result": 22.1, "unit": "µM"}, {"measurement": "TGI", "setting": "NCI-H226 lung", "result": 35.5, "unit": "µM"}, {"measurement": "TGI", "setting": "CCRF-CEM leukemia", "result": 4.45, "unit": "µM"}, {"measurement": "TGI", "setting": "SN12C renal", "result": 13.2, "unit": "µM"}, {"measurement": "TGI", "setting": "SN12K1 renal", "result": 32.8, "unit": "µM"}, {"measurement": "TGI", "setting": "UO-31 renal", "result": 22.3, "unit": "µM"}, {"measurement": "TGI", "setting": "RXF 393 renal", "result": 5.46, "unit": "µM"}, {"measurement": "TGI", "setting": "KM12 colon", "result": 28.4, "unit": "µM"}, {"measurement": "TGI", "setting": "SK-OV-3 ovarian", "result": 39.4, "unit": "µM"}, {"measurement": "TGI", "setting": "A498 renal", "result": 25.4, "unit": "µM"}, {"measurement": "TGI", "setting": "P388/ADR leukemia", "result": "> 22.2", "unit": "µM"}, {"measurement": "TGI", "setting": "HOP-18 NSCLC", "result": 19.7, "unit": "µM"}, {"measurement": "TGI", "setting": "KM20L2 colon", "result": 13.4, "unit": "µM"}, {"measurement": "TGI", "setting": "HOP-92 NSCLC", "result": 6.7, "unit": "µM"}, {"measurement": "TGI", "setting": "DMS 114 small cell lung", "result": 9.87, "unit": "µM"}, {"measurement": "TGI", "setting": "SNB-19 CNS", "result": 32.3, "unit": "µM"}, {"measurement": "TGI", "setting": "NCI/ADR-RES ovarian", "result": 34.1, "unit": "µM"}, {"measurement": "TGI", "setting": "HCT-116 colon", "result": 5.11, "unit": "µM"}, {"measurement": "TGI", "setting": "M14 melanoma", "result": 3.12, "unit": "µM"}, {"measurement": "TGI", "setting": "RPMI-8226 leukemia", "result": 9.08, "unit": "µM"}, {"measurement": "TGI", "setting": "HCT-15 colon", "result": 6.75, "unit": "µM"}, {"measurement": "TGI", "setting": "OVCAR-8 ovarian", "result": 8.09, "unit": "µM"}, {"measurement": "TGI", "setting": "M19-MEL melanoma", "result": 11.9, "unit": "µM"}, {"measurement": "TGI", "setting": "IGROV1 ovarian", "result": 34.2, "unit": "µM"}, {"measurement": "TGI", "setting": "SNB-78 CNS", "result": 27.6, "unit": "µM"}, {"measurement": "TGI", "setting": "NCI-H23 lung", "result": 15.4, "unit": "µM"}, {"measurement": "TGI", "setting": "K-562 leukemia", "result": 7.57, "unit": "µM"}, {"measurement": "TGI", "setting": "CAKI-1 renal", "result": 6.2, "unit": "µM"}, {"measurement": "TGI", "setting": "LXFL 529 NSCLC", "result": 2.9, "unit": "µM"}, {"measurement": "TGI", "setting": "TK-10 renal", "result": 12.7, "unit": "µM"}, {"measurement": "TGI", "setting": "NCI-H460 lung", "result": 35, "unit": "µM"}, {"measurement": "TGI", "setting": "UACC-62 melanoma", "result": 17.6, "unit": "µM"}, {"measurement": "TGI", "setting": "DU-145 prostate", "result": 34.3, "unit": "µM"}]}
